From US11685734B2, “ATM kinase inhibitors and compositions and methods of use thereof” (CHDI Foundation, Inc., priority 2019, dated 2023)

What was measured:
cellular ATM activity = cellular ATM activity (Homo sapiens (Human), UniProt Q13315); assay: Inhibition of cellular ATM activity: etoposide-stimulated KAP1 phosphorylation in U20S cells; assay type: cell-based; conditions: 100 μM etoposide, 60 min, read-out: ATM CELL IC50
Description: Inhibition of cellular ATM activity was determined by changes in etoposide-stimulated KAP1 phosphorylation, based on the work of Guo et al. 2014.
Cryopreserved U20S cells were plated overnight at 6 k cells/well in black walled, clear bottomed 384 well plates (Greiner Bio One 781090). After overnight incubation (37 C, 5% CO2), cells were incubated with titrations of test compounds (0.3% DMSO final) in the presence of 100 μM etoposide (Sigma E1383) to stimulate ATM via induction of double stranded DNA breaks. After 60 min, cells were fixed using 100% cold methanol and incubated at −20° C. for 10 min. Fixed cells were washed with PBS containing 0.05% (v/v) Tween 20 (PBS-T) prior to a 60 minute blocking step in Odyssey blocking buffer (LI-COR Biosciences 92740000). Primary antibodies (1:1000 phosphorylated KAP1: Cell Signalling Technology 4127, 1:5000 total KAP1: Cell Signaling Technology 5868) were diluted in Odyssey blocking buffer and incubated overnight at 4° C., before addition of IRDye(R) conjugated secondary antibodies (LI-COR Biociences 926-32211, LI-COR Biosciences 926-68070) diluted 1:2000 in Odyssey blocking buffer for 60 min at room temperature and detection by LI-COR Odyssey (ImageStudio version 2.1.10, focus offset 4 mm, resolution 169 μm, lowest quality, intensities of 1 and 3 for 700 and 800 channels respectively). Immunoreactivity was quantified and the ratio of phosphorylated KAP1 calculated by dividing by the total KAP1 immunoreactivity. The percentage of inhibition was calculated for each concentration of compound using 100% (100 μM etoposide+30 μM KU-60019) and 0% effect controls (100 μM etoposide+DMSO). IC50 values represent the mean from at least two independent experiments.

[1] = molecular target: Recombinant, full length human FLAG-tagged ATM (Homo sapiens (Human), UniProt Q13315); assay: ATM ELISA for p53 S15 phosphorylation; assay type: biochemical; conditions: 0.75 nM ATM, 25 nM p53, 10 μM ATP, 30 min at 20° C.; read-out: ATM BIO IC50
Description: ATM: Recombinant, full length human FLAG-tagged ATM activity (Eurofins 14-933) was measured in an ELISA for p53 S15 phosphorylation, in a 384 well V-bottom polypropylene plate (Greiner Bio One 781280). Reactions contained 0.75 nM ATM, 25 nM full length myc tagged p53 (Eurofins 23-034), 10 μM UltraPure ATP (Promega V915B) and serial dilutions of inhibitors (0.1% DMSO final) in 25 mM HEPES, pH 7.5. 5 mM MgCl2, 2.5 mM MnCl2, 0.006% Brij-35, 0.5% glycerol, 0.1 mg/ml BSA, 0.5 mM DTT and were allowed to proceed for 30 min at 20° C. 70 mM EDTA final terminated the kinase reactions. An aliquot of the terminated reaction (25 μl) was transferred to a 384-well, high binding microplate (Greiner Bio One 781061), precoated with anti-myc capture antibody overnight (Millipore 05-724) diluted in 1:1000 in PBS, then blocked with Odyssey blocking buffer (LI-COR Biosciences 92740000) for 60 min at 20° C. The terminated reaction was allowed to capture for 2 h at 20° C. Phosphorylation was measured using an antibody specific to p53 S15 phosphorylation (1:5000 Abcam ab38497), anti-rabbit HRP (1:1000 Cell Signalling Technology, 7074) and TMB (ab171522). Antibodies were diluted in Odyssey blocking buffer and incubated for 60 min at 20° C. Three washes with PBS containing 0.05% (v/v) Tween 20 (PBS-T) were performed between each incubation. The TMB reaction was stopped with an equal volume of 0.2 M sulfuric acid and absorbance read at 450 nm on the Perkin Elmer Envision within 30 min of terminating the reaction. […] IC50 values represent the mean from at least two independent experiments.

Recombinant, full length human FLAG-tagged ATM, sequence (Q13315 whole entry): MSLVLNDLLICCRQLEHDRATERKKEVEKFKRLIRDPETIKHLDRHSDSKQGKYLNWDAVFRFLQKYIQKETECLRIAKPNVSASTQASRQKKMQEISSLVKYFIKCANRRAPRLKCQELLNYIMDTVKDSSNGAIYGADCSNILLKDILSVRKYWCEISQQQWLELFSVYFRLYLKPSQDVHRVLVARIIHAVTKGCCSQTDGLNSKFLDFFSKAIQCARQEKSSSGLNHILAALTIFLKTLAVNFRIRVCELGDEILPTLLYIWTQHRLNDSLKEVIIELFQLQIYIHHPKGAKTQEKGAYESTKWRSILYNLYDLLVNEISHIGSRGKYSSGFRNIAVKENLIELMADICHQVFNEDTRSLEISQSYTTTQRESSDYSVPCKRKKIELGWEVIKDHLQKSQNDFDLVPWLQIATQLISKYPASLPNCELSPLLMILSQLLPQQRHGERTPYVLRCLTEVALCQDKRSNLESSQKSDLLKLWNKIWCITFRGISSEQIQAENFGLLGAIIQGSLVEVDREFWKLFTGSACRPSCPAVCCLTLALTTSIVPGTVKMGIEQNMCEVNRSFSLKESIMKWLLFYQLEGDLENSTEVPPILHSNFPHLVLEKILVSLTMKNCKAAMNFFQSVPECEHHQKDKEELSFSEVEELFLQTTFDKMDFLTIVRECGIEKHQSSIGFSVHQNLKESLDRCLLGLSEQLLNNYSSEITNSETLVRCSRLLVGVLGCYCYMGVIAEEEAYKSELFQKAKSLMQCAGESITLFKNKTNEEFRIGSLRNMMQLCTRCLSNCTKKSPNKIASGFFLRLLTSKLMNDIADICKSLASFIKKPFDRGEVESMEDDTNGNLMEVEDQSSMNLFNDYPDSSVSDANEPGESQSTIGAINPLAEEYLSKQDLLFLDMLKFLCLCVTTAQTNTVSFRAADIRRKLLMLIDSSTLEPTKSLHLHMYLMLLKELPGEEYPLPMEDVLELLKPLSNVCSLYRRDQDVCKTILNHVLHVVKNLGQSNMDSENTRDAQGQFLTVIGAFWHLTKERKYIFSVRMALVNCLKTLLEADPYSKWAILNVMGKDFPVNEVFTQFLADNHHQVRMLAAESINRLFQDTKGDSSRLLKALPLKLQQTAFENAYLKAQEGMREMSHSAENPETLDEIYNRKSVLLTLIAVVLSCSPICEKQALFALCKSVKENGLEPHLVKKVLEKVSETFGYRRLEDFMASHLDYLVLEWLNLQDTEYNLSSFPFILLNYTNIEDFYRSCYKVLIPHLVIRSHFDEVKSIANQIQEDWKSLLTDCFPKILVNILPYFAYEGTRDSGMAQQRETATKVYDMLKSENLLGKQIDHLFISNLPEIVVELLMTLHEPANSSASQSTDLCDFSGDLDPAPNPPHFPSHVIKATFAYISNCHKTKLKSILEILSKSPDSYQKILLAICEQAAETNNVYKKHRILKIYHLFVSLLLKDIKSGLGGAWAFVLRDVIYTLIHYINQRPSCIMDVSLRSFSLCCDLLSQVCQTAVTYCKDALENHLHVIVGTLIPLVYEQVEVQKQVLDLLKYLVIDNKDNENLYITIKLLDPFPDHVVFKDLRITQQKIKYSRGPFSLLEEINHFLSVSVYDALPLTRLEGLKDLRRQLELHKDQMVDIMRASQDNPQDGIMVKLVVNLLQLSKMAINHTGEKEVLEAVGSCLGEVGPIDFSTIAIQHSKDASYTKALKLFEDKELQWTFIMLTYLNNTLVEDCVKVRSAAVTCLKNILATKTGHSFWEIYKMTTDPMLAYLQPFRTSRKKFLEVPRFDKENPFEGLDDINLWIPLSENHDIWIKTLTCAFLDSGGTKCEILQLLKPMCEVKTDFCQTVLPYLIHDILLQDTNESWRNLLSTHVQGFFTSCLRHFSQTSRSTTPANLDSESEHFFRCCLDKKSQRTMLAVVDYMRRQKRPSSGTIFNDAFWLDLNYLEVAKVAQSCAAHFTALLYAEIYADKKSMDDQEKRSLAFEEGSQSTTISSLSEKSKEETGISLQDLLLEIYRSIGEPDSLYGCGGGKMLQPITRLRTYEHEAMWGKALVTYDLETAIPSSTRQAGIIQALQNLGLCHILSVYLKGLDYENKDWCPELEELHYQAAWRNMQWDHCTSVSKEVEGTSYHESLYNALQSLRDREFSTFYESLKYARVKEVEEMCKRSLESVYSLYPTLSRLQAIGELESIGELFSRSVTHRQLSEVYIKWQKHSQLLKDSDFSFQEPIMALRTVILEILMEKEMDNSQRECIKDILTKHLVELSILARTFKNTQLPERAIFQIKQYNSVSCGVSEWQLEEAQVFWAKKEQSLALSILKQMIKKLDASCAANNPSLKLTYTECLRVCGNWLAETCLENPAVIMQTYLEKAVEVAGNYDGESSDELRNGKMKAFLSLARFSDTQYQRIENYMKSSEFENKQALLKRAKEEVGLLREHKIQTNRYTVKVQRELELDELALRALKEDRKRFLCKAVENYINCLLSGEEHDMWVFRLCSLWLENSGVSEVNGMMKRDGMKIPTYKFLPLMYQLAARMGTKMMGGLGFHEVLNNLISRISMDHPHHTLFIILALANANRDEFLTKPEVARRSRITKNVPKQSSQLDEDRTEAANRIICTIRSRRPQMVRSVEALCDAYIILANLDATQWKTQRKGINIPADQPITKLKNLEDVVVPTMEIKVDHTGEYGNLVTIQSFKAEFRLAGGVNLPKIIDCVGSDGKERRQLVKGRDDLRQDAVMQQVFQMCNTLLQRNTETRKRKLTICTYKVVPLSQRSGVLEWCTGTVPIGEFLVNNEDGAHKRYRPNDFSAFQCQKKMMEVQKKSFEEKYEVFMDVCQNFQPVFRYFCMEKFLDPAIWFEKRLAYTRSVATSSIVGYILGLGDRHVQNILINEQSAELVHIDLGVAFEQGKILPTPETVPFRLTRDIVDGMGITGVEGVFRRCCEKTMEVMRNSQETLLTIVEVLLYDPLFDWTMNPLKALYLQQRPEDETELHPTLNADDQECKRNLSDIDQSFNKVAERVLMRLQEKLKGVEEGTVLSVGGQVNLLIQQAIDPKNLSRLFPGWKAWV
cellular ATM activity, sequence (Q13315 whole entry): as above

SMILES | IC50 (cellular ATM activity) [nM] | IC50 [1] [nM]
O=c1cc(N2CCOCC2)nc(N2CCC[C@@H]2Cc2ccc(Cl)c(Cl)c2)[nH]1 [Example 190] | 939 | 4.2
O=c1cc(N2CCOCC2)nc(N2CCCCC[C@@H]2Cc2cccc(F)c2F)[nH]1 [Example 223] | 512 | 26.3
C[C@@H]1CN(c2cc(=O)[nH]c(N3C[C@H]4C[C@H]4[C@@H]3Cc3ccccc3)n2)CCO1 [Example 291, 2-((1R,2S,5S)-2-benzyl-3-azabicyclo[3.1.0]hexan-3-yl)-6-((R)-2-methylmorpholino)pyrimidin-4(3H)-one] | 562 | 11.1
Cc1cc(C[C@H]2CCCN2c2nc(N3CCO[C@H](C)C3)cc(=O)[nH]2)cc(C)n1 [Example 277, 2-[(2R)-2-[(2,6-dimethyl-4-pyridyl)methyl]pyrrolidin-1-yl]-4-[(2R)-2-methylmorpholin-4-yl]-1H-pyrimidin-6-one] | 417 | 57
Cc1ccccc1C[C@H]1CCCCCN1c1cc(N2CCOCC2)cc(=O)[nH]1 [Example 25, (R)-6-(2-(2-methylbenzyl)azepan-1-yl)-4-morpholinopyridin-2(1H)-one] | 530 | 13.7
O=c1cc(N2CCOCC2)cc(N2CCC[C@@H]2Cc2ccc(F)cc2)[nH]1 [Example 16, (R)-6-(2-(4-fluorobenzyl)pyrrolidin-1-yl)-4-morpholino pyridin-2(1H)-one] | 4160 | 89.4
O=c1cc(N2CCOCC2)cc(N2C[C@H]3CC[C@H](C3)[C@@H]2Cc2ccccc2)[nH]1 [Example 135] | 178 | 8.7
CC1C[C@H](Cc2ccccc2)N(c2cc(N3CCOCC3)cc(=O)[nH]2)C1 (single isomer, unassigned) [Example 100, 6-((2R,4R*)-2-benzyl-4-methylpyrrolidin-1-yl)-4-morpholinopyridin-2(1H)-one] | 1630 | 33.1
O=c1cc(N2CCOCC2)cc(N2CCCCC[C@@H]2Cc2ccsc2)[nH]1 [Example 64, (R)-4-morpholino-6-(2-(thiophen-3-ylmethyl)azepan-1-yl)pyridin-2(1H)-one] | 933 | 42.8
C[C@@H]1CN(c2cc(=O)[nH]c(N3CCCCC[C@@H]3Cc3cccs3)n2)CCO1 [Example 286, 6-((R)-2-methylmorpholino)-2-((R)-2-(thiophen-2-ylmethyl)azepan-1-yl)pyrimidin-4(3H)-one] | 1020 | 24.6
CC1(C)CCC[C@H](Cc2ccccc2)N(c2nc(N3CCOCC3)cc(=O)[nH]2)C1 [Example 245] | 1240 | 17.3
O=c1cc(C2=CCOCC2)cc(N2CCCCC[C@@H]2Cc2ccccc2)[nH]1 [Example 167, (R)-6-(2-benzylazepan-1-yl)-4-(3,6-dihydro-2H-pyran-4-yl)pyridin-2(1H)-one] | 1540 | 38.7
O=c1cc(N2CCOCC2)cc(N2CCCC(F)(F)C[C@@H]2Cc2ccccc2)[nH]1 [Example 74, (S)-6-(2-benzyl-4,4-difluoroazepan-1-yl)-4-morpholinopyridin-2(1H)-one] | 498 | 11.2
O=c1cc(N2CCOCC2)nc(N2C[C@@H]3C[C@@H]3[C@@H]2Cc2ccccc2)[nH]1 [Example 211] | 446 | 3.7
C[C@@H]1CN(c2cc(=O)[nH]c(N3CCC[C@@H]3Cc3ccc(F)cc3)n2)CCO1 [Example 281, 2-[(2R)-2-[(4-fluorophenyl)methyl]pyrrolidin-1-yl]-4-[(2R)-2-methylmorpholin-4-yl]-1H-pyrimidin-6-one] | 627 | 34.9
O=c1cc(N2CCOCC2)cc(N2CCCCC[C@@H]2Cc2ccccc2F)[nH]1 [Example 78, (R)-6-(2-(2-fluorobenzyl)azepan-1-yl)-4-morpholinopyridin-2(1H)-one] | 318 | 10.8
COc1cccc(C[C@H]2CCCCCN2c2nc(N3CCOCC3)cc(=O)[nH]2)c1 [Example 203] | 427 | 1.9
